From patent US4381305A, “Ethylenediamine derivatives and pharmaceutical compositions containing same” (Simes S.p.A., priority 1980, dated 1983)

The compounds below were run on rabbit's isolated aorta (assay: KCl-induced contraction of the rabbit's isolated aorta (antispasmodic activity on the smooth muscles)). Conditions: Oryctolagus cuniculus, Godfraind method, read-out: ED50 (the source's name).
Assay type: cell-based
Excerpt: The compounds of the present invention are endowed with antispasmodic activity on the smooth muscles with has been established with the test of KCl--induced contraction of the rabbit's isolated aorta according to Godfraind and coll. (Arch. Int. Pharmacodyn., 172, 235, 1968).

Q: For `COc1cc(CN(C)CCN(C)CCC(c2ccccc2)c2ccccc2)cc(OC)c1OC` [N1,N2-dimethyl-N1-(3,4,5-trimethoxybenzyl)-N2-(3,3-diphenylpropyl)-ethylenediamine dimaleate], which IC50 is on record?
A: The IC50 was 1.3 µg/mL.

Q: `COc1ccc(C(O)(CCN(C)CCN(C)Cc2ccccc2)c2ccc(OC)cc2)cc1` [N1,N2-dimethyl-N1-benzyl-N2-(3,3-di-p-methoxyphenyl-3-hydroxypropyl)-ethylenediamine dimaleate] was tested. Which IC50 did it give?
A: The IC50 was 5.2 µg/mL.

Q: For `CN(CC=C(c1ccccc1)c1ccccc1)CCN(C)Cc1ccccc1` [N1,N2-dimethyl-N1-benzyl-N2-(3,3-diphenylallyl)-ethylenediamine dimaleate], which IC50 is on record?
A: Its IC50 is 2.1 µg/mL.

Q: For `CN(CCC(c1ccccc1)c1ccccc1)CCN(C)Cc1ccccc1` [N1,N2-dimethyl-N1-benzyl-N2-(3,3-diphenylpropyl)-ethylenediamine dimaleate], which IC50 is on record?
A: The IC50 was 4.6 µg/mL.
